Results published in article PMC6724035, “Evaluation of Tumor-Targeting Properties of an Antagonistic Bombesin Analogue RM26 Conjugated with a Non-Residualizing Radioiodine Label Comparison with a Radiometal-Labelled Counterpart” (Pharmaceutics, 2019).
Where a SMILES comes first, the peptide text is derived from it. [ ]: non-standard residue; d: D form. Tyr(3-I) = N[C@@H](Cc1ccc(O)c(I)c1)C(=O)O; Sta = CC(C)C[C@H](N)[C@@H](O)CC(=O)O; AEEA = NCCOCCOCC(=O)O

Assays:
[1] = HPLC
Description: In vitro stability of [^125I]I-Tyr-PEG2-RM26 was evaluated in PBS and in presence of 100-fold molar excess of sodium iodide (1 mM). After purification, samples of freshly labelled conjugate (10 µL, 0.01 nmol) were mixed with 1 µL of NaI and incubated at room temperature for 1 h. Control samples were mixed with equal volume of PBS. The experiment was performed in duplicates. The stability of [^125I]I-Tyr-PEG2-RM26 was analyzed by HPLC.

PC-3 cells [2] = test: Cell-associated radioactivity in presence of lysosomotropic bases or sodium azide/2-deoxyglucose; format: cell-based, human; conditions: 1 nM, 100 µM chloroquine, 20 mM ammonium chloride, 2-8 h at 37 °C
Description: Additionally, PC-3 cells were incubated with 1 nM of [^125I]I-Tyr-PEG2-RM26 in presence of 20 mM sodium azide/10 mM 2-deoxyglucose at 37 °C for 8 h. […] At predetermined time points (2, 4, and 8 h), media from a set of three dishes was removed, cells were detached by trypsin-EDTA solution, re-suspended, and radioactivity in cells was measured.

PC-3 cells [3] = test: Cellular processing assay (membrane-bound and internalized radioactivity); format: cell-based, human; conditions: 1 nM, 37 °C
Description: At predetermined time points (1, 2, 4, 8, 24 h), incubation media was aspirated, cells were washed with serum-free media, and membrane-bound and internalized radioactivity were collected using the method described earlier. The membrane-bound radiolabelled conjugate were removed from cells by treatment with 4 M urea solution in a 0.1 M glycine buffer, pH 2, for 5 min on ice. The cell debris containing the internalized conjugate was detached by treatment with 1 M NaOH. Radioactivity of samples was measured, and percentage of membrane-bound, internalized and total radioactivity was calculated. The experiments were performed in triplicate.

PC-3 cells [4] = test: In vitro binding specificity assay; format: cell-based, human; conditions: 1 nM, 1 h at 37 °C; 200-fold excess NOTA-PEG4-RM26 for blocking
Description: (§1) The in vitro binding specificity test of [^125I]I-Tyr-PEG2-RM26 was performed on PC-3 and DU-145 cell lines. […] The cells were incubated with 1 nM concentration of [^125I]I-Tyr-PEG2-RM26 solution for 1 h at 37 °C. To saturate GRPR, one set of dishes was treated with 200-fold molar excess of non-labelled peptide, NOTA-PEG4-RM26, 15 min before adding the radiolabelled compound. After washing with serum-free media, cells were detached by treatment with 1 mL trypsin-EDTA solution twice. Cell-associated radioactivity was measured in the gamma-counter and presented as percentage of cell-associated activity.

DU-145 cells = test: In vitro binding specificity assay; format: cell-based, human; conditions: 1 nM, 1 h at 37 °C; 200-fold excess NOTA-PEG4-RM26 for blocking
Description: as §1

[5] = tested on: GRPR-expressing PC-3 tumour xenograft; test: in vivo; conditions: PC-3 xenograft
Description: (§2) Animal studies were planned and performed in agreement with EU Directive 2010/63/EU for animal experiments and Swedish national legislation concerning protection of laboratory animals. Experiments were approved by the Ethics Committee for Animal Research in Uppsala (C4/16, 26 February 2016). Biodistribution studies were performed in female BALB/C nu/nu mice purchased from Scanbur A/S (Karlslunde, Denmark). GRPR-expressing xenografts were established by subcutaneous injection of 5 × 10^6 PC-3 cells/mouse in the right hind leg of mice 3 weeks before the experiment. The animals were randomized into groups of four mice for each data point.
(§3) Mice were euthanized followed by dislocation of their neck at 0.5 h after injection and blood samples were collected by heart puncture. At 3 and 24 h after injection, mice were euthanized by an intraperitoneal injection of anaesthetic solution (20 µL of solution per gram of body weight: Ketalar, 10 mg/mL; Rompun, 1 mg/mL) followed by heart puncture. Salivary glands, thyroid, lung, liver, spleen, pancreas, stomach, small intestine, kidneys, tumour, muscle, and bone were collected and weighed. The organ radioactivity was measured in a gamma-counter and uptake values of organs were calculated as percentage of injected dose per gram tissue (% ID/g). To test the in vivo binding specificity, a group of mice was co-injected with 7.5 nmol of non-labelled peptide (NOTA-PEG4-RM26), and biodistribution was measured at 0.5 h after injection.

in vivo = conditions: mouse, iv; for tissue to tissue ratio at 0.5 h / tissue to tissue ratio at 3 h / tissue to tissue ratio at 24 h: female, BALB/c nu/nu, total radioactivity; for tissue uptake at 0.5 h / tissue uptake at 3 h / tissue uptake at 24 h: 40 pmol, 40 pmol i.v.; for tissue uptake at 0.5 h: 0.5 h after injection; for tissue uptake at 3 h: 3 h after injection; for tissue uptake at 24 h: 24 h after injection
Description: as §2, §3

[6] = tested on: GRPR-expressing PC-3 tumour xenograft; conditions: 0.5 h after injection; co-injection of non-labelled NOTA-PEG4-RM26
Description: as §2
as §3, with “Salivary glands, thyroid, lung, liver, spleen, pancreas, stomach, small intestine, kidneys, tumour, muscle, and bone were collected and weighed.” left out

[7] = small intestine, small intestine

CC(C)C[C@H](NC(=O)C[C@H](O)[C@H](CC(C)C)NC(=O)[C@H](Cc1c[nH]cn1)NC(=O)CNC(=O)[C@@H](NC(=O)[C@H](C)NC(=O)[C@H](Cc1c[nH]c2ccccc12)NC(=O)[C@H](CCC(N)=O)NC(=O)[C@@H](Cc1ccccc1)NC(=O)COCCOCCNC(=O)[C@@H](N)Cc1ccc(O)c(I)c1)C(C)C)C(N)=O [[^125I]I-Tyr-PEG2-RM26] (H-[Tyr(3-I)][AEEA][dF]QWAVGH[Sta]L-NH2)
In vitro stability in presence of excess 1 mM NaI ([1]; 100-fold molar excess NaI, 1 h at room temperature): 92 ± 3%
In vitro stability in PBS ([1]; 1 h incubation at room temperature): 95 ± 1%
Cell-bound activity and retention in presence of chloroquine and ammonium chloride vs control (PC-3 cells [2]): considerably higher compared to control
Cellular processing pattern (PC-3 cells [3]): quite fast internalization during the first hour
Binding specificity to PC-3 cells (PC-3 cells [4]): receptor mediated
Binding specificity to DU-145 cells (DU-145 cells): receptor mediated
Decrease of tumour uptake at 3 h compared to 0.5 h after injection [5]: more than 3 fold
tissue to tissue ratio at 0.5 h (in vivo; tumour and bone): 1.9 ± 0.2
tissue to tissue ratio at 3 h (in vivo; tumour and bone): 1.9 ± 0.3
tissue to tissue ratio at 0.5 h (in vivo; tumour and kidney): 0.5
tissue to tissue ratio at 3 h (in vivo; tumour and kidney): 0.3 ± 0.1
tissue to tissue ratio at 24 h (in vivo; tumour and kidney): 0.1
tissue to tissue ratio at 0.5 h (in vivo; tumour and liver): 0.8 ± 0.2
tissue to tissue ratio at 3 h (in vivo; tumour and liver): 0.8 ± 0.2
tissue to tissue ratio at 24 h (in vivo; tumour and liver): 0.6 ± 0.5
tissue to tissue ratio at 0.5 h (in vivo; tumour and lung): 0.8
tissue to tissue ratio at 3 h (in vivo; tumour and lung): 0.6 ± 0.1
tissue to tissue ratio at 24 h (in vivo; tumour and lung): 1 ± 0.6
tissue to tissue ratio at 0.5 h (in vivo; tumour and muscle): 3.6 ± 0.4
tissue to tissue ratio at 3 h (in vivo; tumour and muscle): 3.7 ± 0.6
tissue to tissue ratio at 0.5 h (in vivo; tumour and pancreas): 0.7 ± 0.1
tissue to tissue ratio at 3 h (in vivo; tumour and pancreas): 0.9 ± 0.1
tissue to tissue ratio at 0.5 h (in vivo; tumour and salivary gland): 1.3 ± 0.6
tissue to tissue ratio at 3 h (in vivo; tumour and salivary gland): 1.2 ± 0.3
tissue to tissue ratio at 0.5 h (in vivo; tumour and small intestine): 1.1 ± 0.6
tissue to tissue ratio at 3 h (in vivo; tumour and small intestine): 1.3 ± 0.4
tissue to tissue ratio at 0.5 h (in vivo; tumour and spleen): 1.3 ± 0.2
tissue to tissue ratio at 3 h (in vivo; tumour and spleen): 1.1 ± 0.1
tissue to tissue ratio at 0.5 h (in vivo; tumour and stomach): 0.6 ± 0.2
tissue to tissue ratio at 3 h (in vivo; tumour and stomach): 0.5 ± 0.1
tissue to tissue ratio at 0.5 h (in vivo; tumour and thyroid): 1 ± 0.5
tissue to tissue ratio at 3 h (in vivo; tumour and thyroid): 1.2 ± 0.6
tissue to tissue ratio at 0.5 h (in vivo; tumour and whole blood): 0.7
tissue to tissue ratio at 3 h (in vivo; tumour and whole blood): 0.8 ± 0.1
tissue to tissue ratio at 24 h (in vivo; tumour and whole blood): 6 ± 4
tissue uptake at 0.5 h (in vivo; blood, blood): 10.2 ± 1.5 %ID/g
tissue uptake at 3 h (in vivo; blood, blood): 2.9 ± 1.5 %ID/g
tissue uptake at 24 h (in vivo; blood, blood): 0.02 %ID/g
tissue uptake at 0.5 h (in vivo; bone, bone): 3.8 ± 0.8 %ID/g
tissue uptake at 3 h (in vivo; bone, bone): 1.1 ± 0.5 %ID/g
tissue uptake at 0.5 h (in vivo; kidney, kidney): 13.2 ± 1.8 %ID/g
tissue uptake at 3 h (in vivo; kidney, kidney): 6.1 ± 1.1 %ID/g
tissue uptake at 24 h (in vivo; kidney, kidney): 1.5 ± 0.3 %ID/g
tissue uptake at 0.5 h (in vivo; liver, liver): 8.9 ± 3.1 %ID/g
tissue uptake at 3 h (in vivo; liver, liver): 2.6 ± 1.1 %ID/g
tissue uptake at 24 h (in vivo; liver, liver): 0.2 %ID/g
tissue uptake at 0.5 h (in vivo; lung, lung): 9.1 ± 1.2 %ID/g
tissue uptake at 3 h (in vivo; lung, lung): 3.5 ± 1.4 %ID/g
tissue uptake at 24 h (in vivo; lung, lung): 0.2 ± 0.1 %ID/g
tissue uptake at 0.5 h (in vivo; muscle, muscle): 2 %ID/g
tissue uptake at 3 h (in vivo; muscle, muscle): 0.6 ± 0.3 %ID/g
tissue uptake at 0.5 h (in vivo; pancreas, pancreas): 10.1 ± 1.2 %ID/g
tissue uptake at 3 h (in vivo; pancreas, pancreas): 2.3 ± 0.6 %ID/g
tissue uptake at 0.5 h (in vivo; salivary gland, salivary gland): 6.6 ± 3.7 %ID/g
tissue uptake at 3 h (in vivo; salivary gland, salivary gland): 2 ± 1.2 %ID/g
tissue uptake at 0.5 h (in vivo; [7]): 7.3 ± 3 %ID/g
tissue uptake at 3 h (in vivo; [7]): 1.8 ± 0.7 %ID/g
tissue uptake at 0.5 h (in vivo; spleen, spleen): 5.4 ± 0.8 %ID/g
tissue uptake at 3 h (in vivo; spleen, spleen): 2 ± 0.8 %ID/g
tissue uptake at 0.5 h (in vivo; stomach, stomach): 13.2 ± 7.2 %ID/g
tissue uptake at 3 h (in vivo; stomach, stomach): 4.6 ± 2.7 %ID/g
tissue uptake at 24 h (in vivo; stomach, stomach): 0.1 %ID/g
tissue uptake at 0.5 h (in vivo; thyroid, thyroid): 8.2 ± 3.7 %ID/g
tissue uptake at 3 h (in vivo; thyroid, thyroid): 2.2 ± 1.6 %ID/g
tissue uptake at 0.5 h (in vivo; tumour, tumour, non-blocked): 7 ± 0.8 %ID/g
tissue uptake at 3 h (in vivo; tumour, tumour): 2.1 ± 0.8 %ID/g
Uptake in pancreas, blocked vs non-blocked group [6]: significantly (p < 0.05) reduced
